Experimental data reported in ChEMBL document CHEMBL1201862, “PubChem BioAssay data set” (2004).
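Dose response: 5 concentrations. Exposure: 48 h. Format: 96-well plates. Endpoint: linear interpolation; highest concentration if not reached. Abbreviation: GI50, concentration required for 50% inhibition of growth.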 Active and inactive are the calls of the source. Cut-off read from the data, not from the text of the source: active = GI50 up to about 1.1 µM and inactive = higher.

Assays:
Experiment in all cases: growth of human tumour cells (NCI), 48 h
BT-549 = test system: BT-549
TK-10 = test system: TK-10
SF-295 = test system: SF-295
K562 = test system: K562
EKVX = test system: EKVX
HT-29 = test system: HT-29
T47D = test system: T47D
MDA-MB-435 = test system: MDA-MB-435
OVCAR-8 = test system: OVCAR-8
A549 = test system: A549
PC-3 = test system: PC-3
DU-145 = test system: DU-145
HL-60 = test system: HL-60
MCF7 = test system: MCF7
HOP-62 = test system: HOP-62
SF-268 = test system: SF-268
UO-31 = test system: UO-31
NCI-H460 = test system: NCI-H460
HCT-116 = test system: HCT-116
SNB-75 = test system: SNB-75
UACC-257 = test system: UACC-257
SK-MEL-2 = test system: SK-MEL-2
786-0 = test system: 786-0
COLO 205 = test system: COLO 205
Hs-578T = test system: Hs-578T
LOX IMVI = test system: LOX IMVI
UACC-62 = test system: UACC-62
CCRF-CEM = test system: CCRF-CEM
CAKI-1 = test system: CAKI-1
IGROV-1 = test system: IGROV-1
NCI-H522 = test system: NCI-H522
RXF 393 = test system: RXF 393
SN12C = test system: SN12C
MOLT-4 = test system: MOLT-4
SK-MEL-5 = test system: SK-MEL-5
OVCAR-5 = test system: OVCAR-5
ACHN = test system: ACHN
SK-OV-3 = test system: SK-OV-3
HCT-15 = test system: HCT-15
SNB-19 = test system: SNB-19
NCI-H226 = test system: NCI-H226
RPMI-8226 = test system: RPMI-8226
SW-620 = test system: SW-620
SR = test system: SR
MDA-MB-231 = test system: MDA-MB-231
KM12 = test system: KM12
NCI/ADR-RES = test system: NCI/ADR-RES
SK-MEL-28 = test system: SK-MEL-28
SF-539 = test system: SF-539
M14 = test system: M14
U-251 = test system: U-251
NCI-H23 = test system: NCI-H23
Malme-3M = test system: Malme-3M
A498 = test system: A498
OVCAR-3 = test system: OVCAR-3

With `C/C(=C\COP(=O)(O)OP(=O)(O)O)CC/C=C(\C)CNc1ccccc1` the GI50 (BT-549) was 9.16 µM (inactive), the GI50 (TK-10) was 39.4 µM (inactive) and the GI50 (SF-295) was > 50 µM (inactive). For the same compound, the GI50 (K562) was > 50 µM (inactive), the GI50 (EKVX) was > 50 µM (inactive) and the GI50 (HT-29) was > 50 µM (inactive). For the same compound, the GI50 (T47D) was 27.4 µM (inactive), the GI50 (MDA-MB-435) was > 50 µM (inactive) and the GI50 (OVCAR-8) was > 50 µM (inactive). For the same compound, the GI50 (A549) was > 50 µM (inactive), the GI50 (PC-3) was > 50 µM (inactive) and the GI50 (DU-145) was > 50 µM (inactive). For the same compound, the GI50 (HL-60) was 1.05 µM (active), the GI50 (MCF7) was > 50 µM (inactive) and the GI50 (HOP-62) was > 50 µM (inactive). For the same compound, the GI50 (SF-268) was > 50 µM (inactive), the GI50 (UO-31) was > 50 µM (inactive) and the GI50 (NCI-H460) was > 50 µM (inactive). The GI50 (HCT-116) was > 50 µM (inactive), the GI50 (SNB-75) was 27.5 µM (inactive) and the GI50 (UACC-257) was 43 µM (inactive). The GI50 (SK-MEL-2) was > 50 µM (inactive), the GI50 (786-0) was > 50 µM (inactive) and the GI50 (COLO 205) was > 50 µM (inactive). The GI50 (Hs-578T) was 26.4 µM (inactive), the GI50 (LOX IMVI) was > 50 µM (inactive) and the GI50 (UACC-62) was > 50 µM (inactive). The GI50 (CCRF-CEM) was 0.832 µM (active), the GI50 (CAKI-1) was > 50 µM (inactive) and the GI50 (IGROV-1) was 11 µM (inactive). For the same compound, the GI50 (NCI-H522) was > 50 µM (inactive), the GI50 (RXF 393) was > 50 µM (inactive) and the GI50 (SN12C) was > 50 µM (inactive). The GI50 (MOLT-4) was 20.1 µM (inactive), the GI50 (SK-MEL-5) was 26.9 µM (inactive) and the GI50 (OVCAR-5) was > 50 µM (inactive). For the same compound, the GI50 (ACHN) was > 50 µM (inactive), the GI50 (SK-OV-3) was > 50 µM (inactive) and the GI50 (HCT-15) was greater than 50 µM. The GI50 (SNB-19) was 48.1 µM (inactive), the GI50 (NCI-H226) was > 50 µM (inactive) and the GI50 (RPMI-8226) was 0.005 µM (active). For the same compound, the GI50 (SW-620) was > 50 µM (inactive), the GI50 (SR) was 0.0893 µM (active) and the GI50 (MDA-MB-231) was > 50 µM (inactive). The GI50 (KM12) was > 50 µM (inactive), the GI50 (NCI/ADR-RES) was > 50 µM (inactive) and the GI50 (SK-MEL-28) was > 50 µM (inactive). The GI50 (SF-539) was > 50 µM (inactive), the GI50 (M14) was > 50 µM (inactive) and the GI50 (U-251) was > 50 µM (inactive).

In the case of `COC1=CC(=O)N(C(=O)C2CSC(C(CO)NC(=O)c3csc(/C=N/O)n3)=N2)C1` (stereo not given), the GI50 (BT-549) was > 100 µM (inactive), the GI50 (TK-10) was > 100 µM (inactive) and the GI50 (SF-295) was > 100 µM (inactive). The GI50 (K562) was > 100 µM (inactive), the GI50 (EKVX) was > 100 µM (inactive) and the GI50 (HT-29) was > 100 µM (inactive). For the same compound, the GI50 (MDA-MB-435) was > 100 µM (inactive), the GI50 (OVCAR-8) was > 100 µM (inactive) and the GI50 (PC-3) was > 100 µM (inactive). For the same compound, the GI50 (DU-145) was > 100 µM (inactive), the GI50 (HL-60) was > 100 µM (inactive) and the GI50 (MCF7) was > 100 µM (inactive). For the same compound, the GI50 (HOP-62) was > 100 µM (inactive), the GI50 (SF-268) was > 100 µM (inactive) and the GI50 (NCI-H460) was > 100 µM (inactive). The GI50 (HCT-116) was > 100 µM (inactive), the GI50 (SNB-75) was 0.302 µM (active) and the GI50 (UACC-257) was > 100 µM (inactive). For the same compound, the GI50 (SK-MEL-2) was > 100 µM (inactive), the GI50 (786-0) was > 100 µM (inactive) and the GI50 (COLO 205) was > 100 µM (inactive). For the same compound, the GI50 (Hs-578T) was 15.9 µM (inactive), the GI50 (NCI-H23) was > 100 µM (inactive) and the GI50 (LOX IMVI) was > 100 µM (inactive). The GI50 (UACC-62) was > 100 µM (inactive), the GI50 (CCRF-CEM) was > 100 µM (inactive) and the GI50 (CAKI-1) was > 100 µM (inactive). The GI50 (IGROV-1) was > 100 µM (inactive), the GI50 (Malme-3M) was 64.4 µM (inactive) and the GI50 (SN12C) was > 100 µM (inactive). The GI50 (MOLT-4) was > 100 µM (inactive), the GI50 (SK-MEL-5) was > 100 µM (inactive) and the GI50 (OVCAR-5) was > 100 µM (inactive). The GI50 (ACHN) was > 100 µM (inactive), the GI50 (A498) was > 100 µM (inactive) and the GI50 (SK-OV-3) was > 100 µM (inactive). For the same compound, the GI50 (HCT-15) was greater than 100 µM, the GI50 (SNB-19) was > 100 µM (inactive) and the GI50 (NCI-H226) was 36.6 µM (inactive). The GI50 (RPMI-8226) was > 100 µM (inactive), the GI50 (SW-620) was > 100 µM (inactive) and the GI50 (SR) was > 100 µM (inactive). The GI50 (OVCAR-3) was > 100 µM (inactive), the GI50 (MDA-MB-231) was > 100 µM (inactive) and the GI50 (KM12) was > 100 µM (inactive). For the same compound, the GI50 (NCI/ADR-RES) was > 100 µM (inactive), the GI50 (SK-MEL-28) was > 100 µM (inactive) and the GI50 (SF-539) was > 100 µM (inactive). The GI50 (M14) was > 100 µM (inactive).
